Results from US20090088411A1, “No-donating corticosteroid with improved pharmacokinetic, anti-inflammatory and vasodilatory properties” (Topigen Pharmaceuticals Inc., priority 2007, published 2009).
Marks after values point to notes of the source that are not given here.

Columns and labels:
sputum neutrophils = experiment: Sputum differential cell count: neutrophils; type: in vivo, humans; settings: for median sputum neutrophils: all patients
Text: (§1) A clinical study was undertaken in humans to test certain aspects of a preferred NO-donating budesonide derivative, TPI-1020, as compared to the corticosteroid, budesonide which was not modified with a NO-donating moiety. Specifically, the objectives of this study were to determine the safety, pharmacodynamic and pharmacokinetic activity of multiple doses of inhaled NO-donating budesonide derivatives compared to that of equimolar doses of inhaled budesonide in subjects with mild asthma who smoke. We chose patients with asthma who smoke since these patients had reported to have not only an increase in eNO but also an increase in neutrophils within their sputum (as described in COPD). While assessing the safety of these compounds in such patients we could thus explore the effects of the same in patients with increased sputum neutrophils.
(§2) Although this study was only powered for neutrophils, the following parameters were also evaluated: sputum total cell and differential cell counts, using known methods, on days 0, 15 and day 22; pre-dose FEV1 measurements on days 0, 1, 14, 15 and 22; peak flow measurements throughout the study (miniwright meter); use of daily rescue medication (salbutamol) throughout the study; the response to methacholine challenge test; and the eNO levels (chemiluminescence after reaction with ozone) on days 0, 15 and 22 and plasma CRP levels on days 0, 15 and 22.
(§3) Those subjects who completed the 14-day run-in period were assigned to receive either an inhaled version of a compound of the present invention (in this case, budesonide 21-(4′-nitrooxymethyl)benzoate, designated hereafter as “TPI-1020”) or budesonide over a 21-day period. The doses administered were based on equimolar amounts of budesonide and were as follows: budesonide 400 μg bid for 14 days then 800 μg bid for 7 days; TPI-1020: 600 μg bid for 14 days then 1200 μg bid for 7 days. Study treatments were delivered in lactose-based blends using the capsule-based Aeroliser dry powder inhaler. Budesonide capsules (Miflonide®, Novartis Pharmaceuticals) delivered 383 μg as compared to 423 μg of budesonide for TPI-1020 (equivalent to 9.5% more budesonide delivered to the body in the TPI-1020 group). However, the fine particle dose of budesonide was 104 μg for the budesonide capsules and only 78 μg for the TPI-1020 capsules (equivalent to 25% less budesonide delivered to the lung in the TPI-1020 group). No other asthma medication except rescue salbutamol was permitted during the study.
The sample size was chosen to provide information about the primary study objective (safety) and with the power to detect a 20% difference in the decrease in sputum neutrophils with TPI-1020, versus that occurring with budesonide. There are no published studies in mild smokers with asthma that have described the variability in sputum neutrophils. However, based on the COPD publication by Gamble et al., almost all patients with COPD have increased sputum neutrophils (>20%). We calculated that if 13 subjects per group completed the study, a difference of 20% in neutrophils (%) between groups could be detected with a power of 80%.

[1] = Peak flow measurements (PEF, miniwright meter); type: in vivo, humans; settings: mean (SD)
Protocol: as §2, §3

blood lymphocytes = experiment: Blood lymphocytes; type: in vivo, humans; settings: mean (SD)
Protocol: as §3

C-reactive protein (CRP) = experiment: Plasma CRP levels; type: in vivo, humans; settings: for CRP (mg/L): mean (SD)
Protocol: as §2, §3

[2] = tested on: HPA (hypothalamic-pituitary-adrenal) axis; settings: in vivo
Text: (§4) This undesirable HPA axis suppression is typically measured by a reduction in urinary cortisol excretion.
(§5) Safety parameters consisted of adverse events and serious adverse events, vital signs, asthma symptoms, laboratory determinations of CBC, urinalysis, regular blood biochemistry, plasma C-reactive protein (CRP), plasma and urinary free cortisol levels, spirometry and electrocardiograms (ECGs).

[3] = Supine and standing blood pressure (vital signs), clinical study; type: in vivo, humans
Protocol: as §3

[4] = Use of daily rescue medication (salbutamol); type: in vivo, humans; settings: mean (SD)
Protocol: as §2, §3

FEV1 spirometry = type: in vivo, humans; settings: for FEV1 (ITT, L) / FEV1 (PD, L): mean (SD)
Protocol: as §2, §3

neutrophils = experiment: Guinea pig model of LPS induced lung inflammation; type: in vivo
blood eosinophils = experiment: Blood eosinophils; type: in vivo, humans; settings: mean (SD)
Protocol: as §3

[5] = tested on: HPA (hypothalamic-pituitary-adrenal) axis; settings: in vivo; remark: listed apart in the source
Text: as §4, §5

[6] = Plasma pharmacokinetic profile after inhalation; type: in vivo, humans
Protocol: as §3
TPI-1020 was not detected in the plasma of treated subjects at all the time points that were assessed over an 8 hour period on days 1 and 14 and on day 22, approximately 12 hours after the last dose. The budesonide plasma phamacokinetic analysis was different in the TPI-1020 group when compared to the budesonide group (FIG. 6). The Cmax, Tmax, and AUC were, respectively in the TPI-1020 vs. the budesonide treated group. For the data presented in FIG. 6, plasma budesonide was measured over an 8 hour period in budesonide (400 mcg, n=10) and TPI-1020 (600 mcg, n=8) treated patients after the first dose (day 1, dotted line) and day 14 (solid line).

[7] = tested on: exhaled nitric oxide (eNO); experiment: Exhaled NO levels (chemiluminescence); type: in vivo, humans; settings: for eNO (ppb): mean (SD)
Protocol: as §2, §3

sputum eosinophils = experiment: Sputum differential cell count: eosinophils; type: in vivo, humans; settings: mean (SD)
Protocol: as §2, §3

[8] = Asthma control scoring system questionnaire (ACSS); type: in vivo, humans; settings: mean (SD)
Protocol: as §3

[9] = Methacholine challenge test (PC20); type: in vivo, humans; settings: mean (SD)
Protocol: as §2, §3

[10] = set-up: species or system humans; settings: human, in vivo
Text: as §1, §3
The total number of adverse events reported by patients receiving budesonide and TPI-1020 is graphically depicted in FIG. 1. More specifically, FIG. 1 depicts the total number of either treatment-related or physician-determined adverse events for each drug during the 21 day therapeutic period.

Question: Which mean sputum neutrophils (sputum neutrophils; after 22 days, post hoc, patients with baseline sputum neutrophils <20% (normal)) does the source give for `CCCC1O[C@@H]2C[C@H]3[C@@H]4CCC5=CC(=O)C=C[C@]5(C)[C@H]4[C@@H](O)C[C@]3(C)[C@]2(C(=O)COC(=O)c2ccc(CO[N+](=O)[O-])cc2)O1` (some centres unmarked) [TPI-1020, budesonide 21-(4′-nitrooxymethyl)benzoate] here?
Answer: The mean sputum neutrophils was 17.9%.

Question: And the mean sputum neutrophils (sputum neutrophils; after 22 days, post hoc, patients with baseline sputum neutrophils >20%)?
Answer: The mean sputum neutrophils was 33.4%.

Question: And the mean sputum neutrophils (sputum neutrophils; baseline, post hoc, patients with baseline sputum neutrophils <20% (normal))?
Answer: The mean sputum neutrophils was 11.5%.

Question: What about the mean sputum neutrophils (sputum neutrophils; baseline, post hoc, patients with baseline sputum neutrophils >20%) of the same molecule?
Answer: The mean sputum neutrophils was 50.8%.

Question: And the median sputum neutrophils (sputum neutrophils; day 0 prior to therapy)?
Answer: The median sputum neutrophils was 29.8%.

Question: What about the “decrease in median sputum neutrophils” value (sputum neutrophils; day 0 to day 22, all patients) of the same molecule?
Answer: The value was 32.6%.

Question: And the median sputum neutrophils (sputum neutrophils; day 22 (end of therapy))?
Answer: The median sputum neutrophils was 20.1%.

Question: What about the “decrease in mean sputum neutrophils” value (sputum neutrophils; over 22 days, post hoc, patients with baseline sputum neutrophils >20%) of the same molecule?
Answer: The value was 35.8%.

Question: And the “patients in whom sputum neutrophils decreased to <30%” value (sputum neutrophils; patients with high neutrophils at baseline)?
Answer: Its value is 57.1%.

Question: And the “PEF (AM, L/min)” value ([1]; Baseline)?
Answer: Its value is 365.1 (93) L/min.

Question: And the “PEF (AM, L/min)” value ([1]; Day 22)?
Answer: The value was 375.3 (97) L/min.

Question: What about the “Blood lymphocytes (%)” value (blood lymphocytes; Baseline) of the same molecule?
Answer: The value was 20.3 (16.6) %.

Question: What about the “Blood lymphocytes (%)” value (blood lymphocytes; Day 22) of the same molecule?
Answer: Its value is 18.4 (15.4)* %.

Question: What about the “patients in whom CRP decreased” value (C-reactive protein (CRP); 22 days of therapy compared to baseline) of the same molecule?
Answer: The value was 69.2%.

Question: What about the “CRP (mg/L)” value (C-reactive protein (CRP); Baseline) of the same molecule?
Answer: Its value is 3.6 (3.9) mg/L.

Question: What about the “CRP (mg/L)” value (C-reactive protein (CRP); Day 22) of the same molecule?
Answer: Its value is 3.0 (4.5) mg/L.

Question: And the “decrease in plasma CRP” value (C-reactive protein (CRP); day 15 versus baseline, p=0.03 between groups)?
Answer: Its value is 1.4 mg/L.

Question: And the “morning plasma cortisol level” value [2]?
Answer: The value was 13.7 µg/dL.

Question: And the “change in standing pulse pressure” value ([3]; after 22 days, p=0.015 between groups)?
Answer: The value was −9.33 mmHg.

Question: And the “decrease in standing diastolic blood pressure” value ([3]; day 22 versus baseline)?
Answer: Its value is 4.0%.

Question: And the “decrease in standing systolic blood pressure” value ([3]; day 22 versus baseline)?
Answer: Its value is 9.9%.

Question: And the “decrease in supine diastolic blood pressure” value ([3]; day 22 versus baseline)?
Answer: Its value is 3.4%.

Question: What about the “decrease in supine systolic blood pressure” value ([3]; day 22 versus baseline) of the same molecule?
Answer: The value was 3.2%.

Question: What about the “effect on blood pressure values” ([3]; over the 22 day period, vs baseline) of the same molecule?
Answer: Its value is “decreased blood pressure values”.

Question: What about the “Doses of Rescue Rx” value ([4]; Baseline) of the same molecule?
Answer: The value was 14.7 (11).

Question: And the “Rescue free days (%)” value ([4]; Baseline)?
Answer: Its value is 39 (39) %.

Question: What about the “Doses of Rescue Rx” value ([4]; Day 22) of the same molecule?
Answer: Its value is 3.9 (4.5).

Question: And the “Rescue free days (%)” value ([4]; Day 22)?
Answer: The value was 63.5 (33) %.

Question: And the “FEV1 (ITT, L)” value (FEV1 spirometry; Baseline)?
Answer: Its value is 3.0 (0.5) L.

Question: And the “FEV1 (PD, L)” value (FEV1 spirometry; Baseline)?
Answer: Its value is 3.0 (0.6) L.

Question: And the “FEV1 (PD, L)” value (FEV1 spirometry; Day 1)?
Answer: Its value is 2.8 (0.6) L.

Question: And the “FEV1 (PD, L)” value (FEV1 spirometry; Day 14)?
Answer: Its value is 3.0 (0.6) L.

Question: And the “FEV1 (PD, L)” value (FEV1 spirometry; Day 15)?
Answer: Its value is 2.8 (0.7) L.

Question: What about the “FEV1 (ITT, L)” value (FEV1 spirometry; Day 22) of the same molecule?
Answer: The value was 3.0 (0.5) L.

Question: What about the “FEV1 (PD, L)” value (FEV1 spirometry; Day 22) of the same molecule?
Answer: Its value is 3.0 (0.6) L.

Question: What about the “acute effects on FEV1 over an 8 hour period” value (FEV1 spirometry; days 1 and 14, TPI-1020 600 mcg vs budesonide 400 mcg) of the same molecule?
Answer: Its value is “no acute effects on FEV1 when compared to budesonide”.

Question: And the “recruitment of neutrophils into the lungs” value (neutrophils)?
Answer: The value was “inhibited the recruitment of neutrophils”.

Question: And the “Blood eos (%)” value (blood eosinophils; Baseline)?
Answer: Its value is 2.8 (2.7) %.

Question: What about the “Blood eos (%)” value (blood eosinophils; Day 22) of the same molecule?
Answer: Its value is 1.8 (1.7) %.

Question: And the “effect on 24-hour urinary free cortisol” value [5]?
Answer: Its value is “statistically insignificant effects”.

Question: And the TPI-1020 in plasma ([6]; all time points over 8 hours on days 1 and 14, and day 22 about 12 hours after last dose)?
Answer: Its TPI-1020 in plasma is “not detected”.

Question: And the “AUC of plasma budesonide relative to equimolar budesonide group” value ([6]; inhaled, equimolar doses)?
Answer: The value was “significantly lower AUC values”.

Question: What about the “Cmax of plasma budesonide relative to equimolar budesonide group” value ([6]; inhaled, equimolar doses) of the same molecule?
Answer: The value was “more than five fold lower”.

Question: And the “AUC of plasma budesonide relative to equimolar budesonide group” value ([6]; inhaled, equimolar doses, listed as NO-donating budesonide derivative)?
Answer: The value was “more than five fold lower”.

Question: And the “eNO (ppb)” value ([7]; Baseline)?
Answer: Its value is 29 (27) ppb.

Question: What about the “eNO (ppb)” value ([7]; Day 22) of the same molecule?
Answer: The value was 16.9 (14) ppb.

Question: What about the “decrease in eNO” value ([7]; equimolar doses, baseline to day 22) of the same molecule?
Answer: The value was 12.1 ppb.

Question: And the “Sputum eos (%)” value (sputum eosinophils; Baseline)?
Answer: Its value is 8.7 (10.8) %.

Question: What about the “Sputum eos (%)” value (sputum eosinophils; Day 22) of the same molecule?
Answer: Its value is 3.3 (4.0) %.

Question: And the ACSS ([8]; Baseline)?
Answer: Its ACSS is 65 (11.1).

Question: What about the ACSS ([8]; Day 22) of the same molecule?
Answer: The ACSS was 71.5 (16.3).

Question: And the “PC20 (mg/ml)” value ([9]; Baseline)?
Answer: The value was 3.5 (5.7) mg/ml.

Question: What about the “PC20 (mg/ml)” value ([9]; Day 22) of the same molecule?
Answer: Its value is 4.0 (8.9) mg/ml.

Question: And the drug-related adverse events [10]?
Answer: Its drug-related adverse events is 6.

Question: And the “number of subjects that reported adverse events” value [10]?
Answer: The value was 6.

Question: What about the “total treatment-emergent adverse events” value [10] of the same molecule?
Answer: The value was 13.
